# Laboratory results as given in patent publication EP4763845A1, “CYANO AROMATIC RING DERIVATIVE AND PHARMACEUTICAL USE THEREOF” (Haisco Pharmaceutical Group Co., Ltd., priority 2023, dated 2025).
# Like-named read-outs stand apart in the source and are kept apart here.
# Tests used:
# [1] = Pharmacokinetic test in mice; format: in vivo, ICR mice; conditions: mouse, plasma, po, i.g. (5 mg/kg)
# Method: (§1) Experimental objective: In this experiment, a single dose of the test compound was administered to ICR mice via intravenous administration and intragastric gavage, and the concentration of the test compound in plasma of the mice was measured to evaluate the pharmacokinetic profile of the test compound in the mice.
# Experimental animals: Male ICR mice, 6 mice/compound, purchased from Chengdu Ddossy Experimental Animals Co., Ltd.
# (§2) Experimental method: On the day of the experiment, 6 SD mice were randomly grouped according to their body weights. The animals were fasted with water available for 12 to 14 h one day before the administration, and were fed 4 h after the administration. Table 6 Administration information of pharmacokinetic test in mice
# Sampling: Before and after the administration, 0.15 mL of blood was taken from the orbits under isoflurane anaesthesia, and placed in an EDTAK2 centrifuge tube. Centrifugation was carried out at 5000 rpm at 4°C for 10 min, and the plasma was collected.
# The plasma collection time points for PO groups were 0, 5 min, 15 min, 30 min, 1 h, 2 h, 4 h, 7 h, 24 h, and 48 h.
# The plasma collection time points for IV groups were 0, 5 min, 15 min, 30 min, 1 h, 2 h, 4 h, 7 h, 24 h, and 48 h.
# Before analysis and detection, all samples were stored at -60°C. The samples were analysed quantitatively by LC-MS/MS. Table 7 Pharmacokinetic parameters of compounds of the present invention in plasma of mice
# [2] = target: T1, AR protein (Homo sapiens, UniProt P10275); assay: Detection of AR degradation in VCaP cells (automated western blot); format: cell-based; conditions: degradation of AR protein in VCaP cells, 24 hours incubation; read-out: DC50
# T1 construct: VCap is a human prostate cancer cell line purchased from ATCC; host or cells: VCaP human prostate cancer cells
# T1 sequence (P10275 1-920): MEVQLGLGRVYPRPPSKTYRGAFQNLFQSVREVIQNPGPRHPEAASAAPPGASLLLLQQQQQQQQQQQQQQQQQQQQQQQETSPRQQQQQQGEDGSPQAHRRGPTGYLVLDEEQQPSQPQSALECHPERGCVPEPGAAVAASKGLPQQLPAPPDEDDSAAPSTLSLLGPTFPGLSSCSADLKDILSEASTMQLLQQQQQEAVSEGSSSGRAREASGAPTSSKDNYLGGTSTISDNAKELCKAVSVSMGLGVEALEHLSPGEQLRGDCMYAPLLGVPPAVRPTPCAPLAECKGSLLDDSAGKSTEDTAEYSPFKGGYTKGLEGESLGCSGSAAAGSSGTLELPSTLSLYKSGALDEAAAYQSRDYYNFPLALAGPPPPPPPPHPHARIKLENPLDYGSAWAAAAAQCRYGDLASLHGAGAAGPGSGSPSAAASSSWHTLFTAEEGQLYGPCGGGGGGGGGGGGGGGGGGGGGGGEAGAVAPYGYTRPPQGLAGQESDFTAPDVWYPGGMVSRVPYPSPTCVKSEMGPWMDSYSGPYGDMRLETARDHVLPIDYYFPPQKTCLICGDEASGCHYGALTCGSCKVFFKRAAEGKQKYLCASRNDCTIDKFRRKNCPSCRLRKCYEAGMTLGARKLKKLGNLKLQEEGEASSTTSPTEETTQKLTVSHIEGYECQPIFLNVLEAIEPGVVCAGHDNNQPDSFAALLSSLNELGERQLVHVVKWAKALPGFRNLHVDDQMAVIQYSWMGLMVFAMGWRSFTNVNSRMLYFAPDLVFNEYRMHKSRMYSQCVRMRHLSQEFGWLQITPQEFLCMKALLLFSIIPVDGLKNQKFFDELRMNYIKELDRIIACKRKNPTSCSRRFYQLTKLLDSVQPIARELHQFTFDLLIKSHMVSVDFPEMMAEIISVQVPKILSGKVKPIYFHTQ
# Method: VCap is a human prostate cancer cell line purchased from ATCC and cultured under the following conditions: DMEM + 10% FBS + 1% penicillin-streptomycin solution. The cells were cultured in a 37°C, 5% CO2 incubator. The cells were seeded in a 6-well plate, with 5 × 10^5 cells/well. After seeding, compounds at various concentrations were added, and the plate was incubated for 24 hours in the 37°C, 5% CO2 incubator. Following incubation, the cells were harvested and RIPA lysis buffer (beyotime, Cat. P0013B) was added. The cells were lysed on ice for 15 minutes and centrifuged at 12,000 rpm at 4°C for 10 minutes. The supernatant protein samples were collected and the protein was quantified using the BCA kit (Beyotime, Cat. P0009). Then the protein was diluted to 0.25 mg/mL. The expressions of AR (CST, Cat.5153S) and the internal reference β-actin (CST, Cat. 3700S) were detected using a fully automated western blot quantitative analyser (Proteinsimple). Using the "Compass for SW" software, the relative peak area of AR was calculated when the internal reference area was 10,000. The proportion of AR relative to the solvent control group at various drug concentrations was calculated according to Equation (1), where ARtreat represents the relative peak area of the compound-treated group, and ARsolvent represents the relative peak area of the solvent control group. The processed data obtained from Equation (1) were analysed using GraphPad Prism 8.3.0 software, and the DC50 value was calculated using a four-parameter nonlinear regression model. The degradation rate at a specified concentration was determined as 100-AR%. AR% = ARtreat/ ARsolvent × 100% [formula]
# [3] = target: T2, hERG potassium channel (Homo sapiens, UniProt Q12809); assay: hERG potassium ion channel test (manual patch-clamp, CHO cells); format: cell-based
# T2 construct: expressed in transfected cells; host or cells: CHO cells stably expressing hERG
# Text: Experimental platform: Electrophysiological manual patch-clamp system
# Cell line: Chinese hamster ovary (CHO) cell lines stably expressing hERG potassium ion channel
# Experimental method: In Chinese Hamster Ovary (CHO) cells stably expressing hERG potassium channel, whole cell patch-clamp technique was used to record hERG potassium channel current at room temperature. The glass microelectrode was made of a glass electrode blank (BF150-86-10, Sutter) by a puller. The tip resistance after filling the liquid in the electrode was about 2-5 MΩ. The glass microelectrode can be connected to the patch-clamp amplifier by inserting the glass microelectrode into an amplifier probe. The clamping voltage and data recording were controlled and recorded by the pClamp 10 software through a computer. The sampling frequency was 10 kHz, and the filtering frequency was 2 kHz. After the whole cell records were obtained, the cells were clamped at -80 mV, and the step voltage that induced the hERG potassium current (I hERG) was depolarised from -80 mV to +20 mV for 2 s, then repolarised to -50 mV, and returned to -80 mV after 1 s. This voltage stimulation was given every 10 s, and the administration process was started after the hERG potassium current was confirmed to be stable (at least 1 minute). The compound was administered for at least 1 minute at each test concentration, and at least 2 cells (n ≥ 2) were tested at each concentration.
# Data processing: Data analysis processing was carried out by using pClamp 10, GraphPad Prism 5 and Excel software.
# Compound IC50 was calculated using GraphPad Prism 5 software by fitting according to the following equation: Y = Bottom + (Top−Bottom)/(1+10^(∧)((LogIC50−X)*HillSlope)) [formula] where X represents the Log value of the tested concentration of the test sample, Y represents the inhibition percentage at the corresponding concentration, and Bottom and Top represent the minimum and maximum inhibition percentage, respectively.
# [4] = Pharmacokinetic test in rats; format: in vivo, SD rats; conditions: i.g. (5 mg/kg); for AUC(0-t): rat, po
# Method: as §1, with “SD rats” for “ICR mice”, “rats” for “mice”, “rats.” for “mice.”
# Experimental animals: Male SD rats, 200-220 g, 6 rats/compound, purchased from Chengdu Ddossy Experimental Animals Co., Ltd.
# as §2, with “SD rats” for “SD mice”, “Table 3” for “Table 6”, “in rats” for “in mice”
# Sampling: Before and after the administration, 0.1 mL of blood was taken from the orbits under isoflurane anaesthesia, and placed in an EDTAK2 centrifuge tube. Centrifugation was carried out at 5000 rpm at 4°C for 10 min, and the plasma was collected.
# The plasma collection time points for IV&PO groups were 0, 5 min, 15 min, 30 min, 1 h, 2 h, 4 h, 7 h, 24 h, and 48 h.
# Before analysis and detection, all samples were stored at -60°C. The samples were analysed quantitatively by LC-MS/MS. Table 4 Pharmacokinetic parameters of compounds of the present invention in plasma of rats
# [5] = tested on: VCaP cells; assay: VCaP cell proliferation inhibition experiment (CellTiter-Glo); format: cell-based; conditions: Homo sapiens, 168 h
# Method: After centrifugation and resuspension, viable cell counting was performed using a Vi-Cell XR cell counter. […] Then, 180 µl of the cell suspension was added per well to a 96-well cell culture plate at a cell density of 7,500 cells/well. At the time of seeding, T0 wells were also prepared. The following day, R1881 at a final concentration of 0.1 nM and compounds at various concentrations were added. The plate was placed back into the incubator and cultured for an additional 7 days. At the time of compound addition, the T0 plate was measured using the CellTiter-Glo (CTG) kit (Promega, Cat. No. G7572) and recorded as RLU0. Following incubation, 75 µl of pre-thawed and room temperature-equilibrated CellTiter-Glo solution was added to each well. […] The results were processed according to Equation (2). […] Growth% = (RLUcompound−RLU0)/(RLUcontrol−RLU0) × 100% [formula]
# [6] = Vehicle 3: 5% DMSO+5% Solutol+90% (20% SBE-β-CD)
# [7] = chinese hamster, inhibitory activity against hERG potassium channel current, CHO cells, whole cell patch-clamp, read-out: IC50
# T2 sequence (Q12809 whole entry): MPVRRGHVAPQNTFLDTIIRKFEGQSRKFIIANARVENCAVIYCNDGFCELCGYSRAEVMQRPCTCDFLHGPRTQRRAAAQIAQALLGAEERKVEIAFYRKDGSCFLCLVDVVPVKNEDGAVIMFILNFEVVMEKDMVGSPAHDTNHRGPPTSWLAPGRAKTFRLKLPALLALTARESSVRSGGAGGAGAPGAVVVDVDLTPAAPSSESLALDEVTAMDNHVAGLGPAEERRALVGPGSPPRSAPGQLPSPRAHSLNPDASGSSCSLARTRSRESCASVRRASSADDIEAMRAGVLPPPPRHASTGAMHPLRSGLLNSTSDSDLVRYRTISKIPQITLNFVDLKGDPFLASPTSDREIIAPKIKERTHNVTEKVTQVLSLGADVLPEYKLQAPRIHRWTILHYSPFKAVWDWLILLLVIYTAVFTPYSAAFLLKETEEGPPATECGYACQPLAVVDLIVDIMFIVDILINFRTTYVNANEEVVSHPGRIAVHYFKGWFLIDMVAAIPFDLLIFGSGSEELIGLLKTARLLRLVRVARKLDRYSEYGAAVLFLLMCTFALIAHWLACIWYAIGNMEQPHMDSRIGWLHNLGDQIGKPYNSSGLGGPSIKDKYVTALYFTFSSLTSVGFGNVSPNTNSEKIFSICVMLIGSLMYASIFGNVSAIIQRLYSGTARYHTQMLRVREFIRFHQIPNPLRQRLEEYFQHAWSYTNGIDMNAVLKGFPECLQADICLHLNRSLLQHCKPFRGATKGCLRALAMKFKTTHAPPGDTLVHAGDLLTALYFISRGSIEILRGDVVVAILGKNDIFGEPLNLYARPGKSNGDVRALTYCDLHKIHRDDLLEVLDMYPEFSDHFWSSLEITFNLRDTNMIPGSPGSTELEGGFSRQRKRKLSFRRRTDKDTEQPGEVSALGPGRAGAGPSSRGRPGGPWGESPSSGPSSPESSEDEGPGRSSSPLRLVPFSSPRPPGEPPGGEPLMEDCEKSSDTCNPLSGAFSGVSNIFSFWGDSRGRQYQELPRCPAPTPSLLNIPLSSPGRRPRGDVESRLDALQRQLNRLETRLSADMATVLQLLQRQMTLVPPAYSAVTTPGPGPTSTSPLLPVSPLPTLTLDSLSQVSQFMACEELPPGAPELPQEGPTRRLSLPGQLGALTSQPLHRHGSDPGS
Compound,"AUC(0-t) [1, 6]",DC50 [2],"IC50 [3, 7]",GI50 [5],further results
CC1(C)[C@H](NC(=O)c2ccc(N3CCC(CN4CCN5c6cc(F)c(N7CCC(=O)NC7=O)cc6CC[C@@H]5C4)CC3)cc2)C(C)(C)[C@H]1Oc1ccc(C#N)c2ncccc12 [Compound 32],30.9 ± 6.08 µg·h/mL,< 0.1 µM,,,
CC1(C)[C@H](NC(=O)c2ccc(N3CCC(CN4CCN5c6cc(F)c(C7CCC(=O)NC7=O)cc6CC[C@@H]5C4)CC3)cc2)C(C)(C)[C@H]1Oc1ccc(C#N)c2ncccc12 (stereo partly drawn) [Compound 30],33 ± 9.33 µg·h/mL,< 0.1 µM,> 40 µM,,
COc1cc(O[C@H]2C(C)(C)[C@H](NC(=O)c3ccc(N4CCC(CN5CCN6c7cc(F)c(C8CCC(=O)NC8=O)cc7CC[C@H]6C5)CC4)cc3)C2(C)C)ccc1C#N (stereo partly drawn) [Compound 1],,,,< 0.3 µM,"F ([4]; vehicle 5% DMSO+5% Solutol+90% (20% SBE-β-CD)): 46.5±8.6%; AUC(0-t) ([4]; in vivo, vehicle 5% DMSO+5% Solutol+90% (20% SBE-β-CD)): 5.49 ± 1.01 µg·h/mL"
COc1cc(O[C@H]2C(C)(C)[C@H](NC(=O)c3ccc(N4CCC(CN5CCN6c7cc(F)c(N8CCC(=O)NC8=O)cc7CC[C@@H]6C5)CC4)nc3)C2(C)C)ccc1C#N [Trifluoroacetate of compound 66],30.4 ± 9.31 µg·h/mL,,,< 0.3 µM,
CC1(C)[C@H](NC(=O)c2ccc(N3CCC4(CC3)CC(CN3CCN5c6cc(F)c(C7CCC(=O)NC7=O)cc6CC[C@H]5C3)C4)cc2)C(C)(C)[C@H]1Oc1ccc(C#N)c2ncccc12 (stereo partly drawn) [Compound 73],,< 0.1 µM,> 40 µM,,
CC1(C)[C@H](NC(=O)c2ccc(N3CCC(CN4CCN5c6cc(F)c(C(=O)N[C@H]7CCC(=O)NC7=O)cc6CC[C@@H]5C4)CC3)cc2)C(C)(C)[C@H]1Oc1ccc(C#N)c2ncccc12 [Compound 34],,< 0.1 µM,> 40 µM,,
COc1cc(O[C@H]2C(C)(C)[C@H](NC(=O)c3ccc(N4CCC5(CC4)CC(N4CCN6c7cc(F)c(N8CCC(=O)NC8=O)cc7CC[C@@H]6C4)C5)cc3)C2(C)C)ccc1C#N [Compound 79],,< 0.1 µM,,< 0.3 µM,"AUC(0-t) ([4]; male, SD, plasma, vehicle 5% DMSO+5% Solutol+10% PEG400+80% (20% SBE-β-CD)): 6.97 µg·h/mL; IC50 ([3]; human, CHO cells stably expressing hERG potassium channel, inhibitory activity against hERG potassium channel current, CHO cells, whole cell patch-clamp, read-out: IC50): > 40 µM"
COc1cc(O[C@H]2C(C)(C)[C@H](NC(=O)c3ccc(N4CCC(CN5CCN6c7cc(F)c(C(=O)N[C@H]8CCC(=O)NC8=O)cc7CC[C@H]6C5)CC4)cc3)C2(C)C)ccc1C#N [Compound 13],,< 0.1 µM,,,AUC(0-t) ([1]; Vehicle 1: 5% DMSO+5% Solutol+30% PEG400+60% (20% SBE-CD)): 33.5 ± 1.68 µg·h/mL
COc1cc(O[C@H]2C(C)(C)[C@H](NC(=O)c3ccc(N4CCC(CN5CCN6c7cc(F)c(C8CCC(=O)NC8=O)cc7CC[C@@H]6C5)CC4)cc3)C2(C)C)ccc1C#N (stereo partly drawn) [Trifluoroacetate of compound 2],,< 0.1 µM,,,IC50 [3]: > 40 µM
COc1cc(O[C@H]2C(C)(C)[C@H](NC(=O)c3ccc(N4CCC(CN5CCN6c7cc(F)c(C8CCC(=O)NC8=O)cc7CC[C@@H]6C5)CC4)cc3)C2(C)C)ccc1C#N (stereo partly drawn) [Compound 2],,,,,"F ([4]; vehicle 5% DMSO+ 5% Solutol+30% PEG-400+60% (20% SBE-β-CD)): 61.4+9.1%; AUC(0-t) ([4]; in vivo, vehicle 5% DMSO+ 5% Solutol+30% PEG-400+60% (20% SBE-β-CD)): 6.01 ± 0.889 µg·h/mL"
